This note sets out measurements from ChEMBL document CHEMBL3102747, “Discovery of novel N-(5-(arylcarbonyl)thiazol-2-yl)amides and N-(5-(arylcarbonyl)thiophen-2-yl)amides as potent RORγt inhibitors” (Bioorg Med Chem, 2014).

For orientation: IC50 means the concentration at which inhibition is half-maximal. As a reminder, the bioavailability is dose-corrected exposure relative to a reference, in per cent. Read a high bioavailability as good availability. In general, half-life refers to the time needed for the level to fall by half in the phase considered. Higher therefore signals slow loss. What is called Cmax is the peak of the concentration-time curve. In general, clearance refers to a measure of how efficiently the substance is removed, as volume per time. As usually defined, the ΔTm is the shift of the melting midpoint relative to a reference. As a reminder, the Ki is the equilibrium dissociation constant of an inhibitor or competing ligand from its target. Low readings indicate higher affinity, high ones lower affinity.

Data set [1] has as its system Mus musculus. Kind of data set: Dose normalized AUC (0 to infinity) in C57BL/6 mouse at 1 mg/kg, iv. The data set is classed as ADME, organism-based. The arrangement: dose 1 mg/kg, route intravenous. Conditions: in vivo.
Data set [2] deals with T1, Nuclear receptor ROR-gamma (Homo sapiens, UniProt P51449).
T1 sequence (P51449 whole entry): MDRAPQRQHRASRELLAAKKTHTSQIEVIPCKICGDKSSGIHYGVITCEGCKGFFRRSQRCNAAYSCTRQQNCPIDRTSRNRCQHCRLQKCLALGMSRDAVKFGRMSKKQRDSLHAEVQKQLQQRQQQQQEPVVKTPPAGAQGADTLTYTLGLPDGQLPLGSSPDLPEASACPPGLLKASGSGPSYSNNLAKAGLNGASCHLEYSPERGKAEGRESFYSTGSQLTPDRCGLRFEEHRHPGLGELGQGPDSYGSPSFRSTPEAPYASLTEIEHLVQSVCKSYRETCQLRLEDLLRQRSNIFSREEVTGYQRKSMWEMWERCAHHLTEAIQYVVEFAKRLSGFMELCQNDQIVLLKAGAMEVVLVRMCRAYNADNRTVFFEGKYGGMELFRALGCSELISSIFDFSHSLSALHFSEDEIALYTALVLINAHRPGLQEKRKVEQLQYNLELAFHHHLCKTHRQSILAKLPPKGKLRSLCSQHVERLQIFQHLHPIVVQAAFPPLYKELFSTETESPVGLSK
Kind of data set: Inhibition of APC-labeled RORgammat receptor ligand binding domain (unknown origin) after 1 hr by FRET assay.

The nature of data set [3]: Oral biavailability in C57BL/6 mouse at 10 mg/kg. The data set is classed as ADME, organism-based. Also on record: dose 10 mg/kg. Conditions: in vivo.
A short description of data set [4]: Half life in C57BL/6 mouse at 1 mg/kg, iv. The data set is classed as ADME, organism-based. Particulars: in vivo. Also on record: dose 1 mg/kg, route intravenous.
The nature of data set [5]: Volume of distribution at steady state in C57BL/6 mouse at 1 mg/kg, iv. The data set is classed as ADME, organism-based. The arrangement: dose 1 mg/kg, route intravenous. Particulars: in vivo, read-out: Vdss.
Data set [6] can be described thus: Cmax in C57BL/6 mouse blood at 10 mg/kg, po. The data set is classed as ADME, organism-based. The arrangement: dose 10 mg/kg, route oral.
Data set [7] addresses T2, Nuclear receptor ROR-gamma (Mus musculus, UniProt P51450).
T2 sequence (P51450 whole entry): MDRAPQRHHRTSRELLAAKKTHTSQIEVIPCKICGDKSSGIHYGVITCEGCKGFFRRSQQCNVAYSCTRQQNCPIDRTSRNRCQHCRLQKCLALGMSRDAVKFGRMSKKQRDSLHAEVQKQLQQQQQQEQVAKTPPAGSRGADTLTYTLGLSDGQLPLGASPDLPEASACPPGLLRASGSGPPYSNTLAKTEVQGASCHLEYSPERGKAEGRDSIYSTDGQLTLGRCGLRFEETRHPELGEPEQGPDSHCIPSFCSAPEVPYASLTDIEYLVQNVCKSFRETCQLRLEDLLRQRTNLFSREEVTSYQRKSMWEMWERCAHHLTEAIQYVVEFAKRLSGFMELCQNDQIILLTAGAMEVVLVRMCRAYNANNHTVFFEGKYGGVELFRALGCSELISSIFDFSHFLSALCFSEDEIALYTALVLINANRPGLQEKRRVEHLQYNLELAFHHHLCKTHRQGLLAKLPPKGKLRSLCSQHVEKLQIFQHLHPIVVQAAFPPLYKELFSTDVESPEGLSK
Kind of data set: Inhibition of RORgammat receptor ligand binding domain in mouse spleen CD4+ T cells assessed as inhibition of IL-17 production after 3 days by ELISA. The data set is classed as cell-based, T-cell.

The nature of data set [8]: Clearance in C57BL/6 mouse at 1 mg/kg, iv. Conditions: in vivo. The arrangement: dose 1 mg/kg, route intravenous. The data set is classed as ADME, organism-based.
Data set [9] has as its system Mus musculus. Kind of data set: Dose normalized AUC (0 to infinity) in C57BL/6 mouse at 10 mg/kg, po. The data set is classed as ADME, organism-based. Also on record: dose 10 mg/kg, route oral. Conditions: in vivo.
Data set [10] deals with T3, Nuclear receptor ROR-gamma (Homo sapiens) (UniProt P51449).
T3 sequence (whole entry): T1 sequence (P51449 whole entry)
Description: Binding affinity to RORgammat receptor ligand binding domain (unknown origin) assessed as change in melting temperature at 50 uM by circular dichroism spectrophotometric analysis

Data set [11] deals with T1, Nuclear receptor ROR-gamma. Kind of data set: Displacement of 25-[26,27-3H]hydroxycholesterol from RORgammat receptor ligand binding domain (unknown origin) after 60 mins.

With `CCS(=O)(=O)c1ccc(CC(=O)Nc2nc(-c3cccc(Cl)c3)c(C(=O)c3ccccc3Cl)s2)cc1`, the AUC/dose in data set [1] is 937 ng·h/mL/mg/kg; in [9] it was 448 ng·h/mL/mg/kg. For the same molecule, the IC50 in data set [2] was 15.8 nM; in [7], 200 nM. The same molecule showed a bioavailability in data set [3] of 48%. This molecule also showed a half-life in data set [4] of 60 min. Moreover, the Vd in [5] was determined as 1.24 L/kg. Also, in [6], the highest level (Cmax) was 1550 ng/mL. This molecule also came in with a clearance in [8] of 17.8 mL/min/kg. For the same molecule, the thermal shift (ΔTm) in data set [10] is 11.3 °C. Also, affinity in data set [11] was put at a Ki of 39.8 nM.
